The subject of series [1] is human PANC-1 pancreatic tumor xenograft. Briefly: Human PANC-1 pancreatic tumor xenograft, schedule comparison (FIG. 3). The series is classed as in vivo, RPCI SCID mice. An excerpt: In FIG. 3, this experiment compared a q7d×3 with a q3d×3 schedule for paclitaxel and DHA-SBT-1214 using a human PANC-1 pancreatic tumor xenograft in RPCI SCID mice. […] Paclitaxel was only weakly effective, showing tumor growth delays of 18 days with q7d×3 schedule and 13 days with q3d×3 schedule and no CRs.
Background: A xenograft is tissue or cells of one species grown in another, often human tumour cells in immunodeficient mice.

The subject of a further series is prostate CD133+ cells. Briefly: Prostate cancer stem cells under stemness-promoting culture conditions. The series is classed as cell-based. The method, then: In studies with DHA-SBT-1214 and prostate cancer stem cells, Applicants previously determined that low concentrations of DHA-SBT-1214 (0.1-1 μM) induced up to 80-90% death of the highly tumorigenic and highly drug-resistant prostate CD133^+ cells maintained under stemness-promoting culture conditions.

Series [2] concerns colon and prostate cancer cell lines grown as spheroids. Briefly: Spheroid assay with CD133high/CD44high colon and prostate cancer cells. The format is cell-based. The note with it: cells selected for CD133high/CD44high. An excerpt:
The results from experiments using DHA-SBT-1214 in two human pancreatic tumor models (FIGS. 2 and 3) and a proof-of-concept in patient-derived CSC model are described below. The compelling aspects of DHA-SBT-1214 preclinical activity is its effects on CSCs. Highly plastic CSCs are an important new drug target in the treatment of refractory tumors. Through the development of drugs specifically targeting CSCs (or targeting CSCs in addition to tumor cells) a more durable clinical response may be possible. In addition to the previously described cytotoxicity assays in cell cultures, DHA-SBT-1214 was tested in colon and prostate cancer cell lines grown as spheroids from cells selected for being CD133^high/CD44^high, characteristic of stem cells. […] Perhaps more significant was the effect of exposure to relatively low concentrations of DHA-SBT-1214 (100 nM to 1 μM) for 24 hours on the expression of genes associated with “sternness” in several colon and prostate cancer cells lines grown as microspheres (6,7).

The test system of series [3] is patient-derived PPT2 prostate cancer stem cell xenograft. Briefly: Patient-derived prostate cancer stem cell (PPT2) xenograft model. The series is classed as in vivo, mice. The note with it: patient-derived prostate CSC xenograft.
For series [4], the system named is highly drug resistant tumor xenografts. Briefly: Highly drug resistant tumor xenografts in mice. The following applies: mouse, in vivo.
The test system of series [5] is drug-resistant cell lines expressing MDR phenotypes. The note with it: cited from earlier work.
The test system of series [6] is PD-L1, PD-1, CD4, CD8 and Arginase-1 expression in tumor tissues. Briefly: RT-PCR and western blotting of Panc02 tumor tissues. The format is in vivo, mouse. The note with it: anti-PD-L1 combination versus IgG treated group. The method, then: Cells and tumor tissues were washed twice with phosphate-buffered saline (PBS) and lysed in ice-cold lysis buffer containing 2% proteinase inhibitor (both from Sigma-Aldrich Co., St. Louis, Mo., USA). Cells were retrieved with a cell scraper, stirred and incubated on ice for 15 minutes. Mice tumor tissues were sonicated for 10 seconds on ice with sonicator. Lysates were centrifuged, supernatants were collected, and protein concentration was determined using the Bio-Rad protein assay (Bio-Rad Laboratories, Hercules, Calif., USA). The supernatants were diluted with lysis buffer to create equal concentrations of protein. […] Immunocomplexes were detected using western blotting (ECL Prime; GE Healthcare UK Ltd., Buckinghamshire, UK).
The expression level of PD-L1 and mRNA for other proteins was determined using real-time PCR as previously described. […] Relative quantifications of gene expression with qRT-PCR data were calculated relative to murine β-actin.
To investigate how the anticancer agents, induce PD-L1, PD-1, CD4, CD8 and Arginase-1 mRNA expression in pancreatic cancer tumor tissues, the mRNA level of PD-L1, PD-1, CD4, CD8, and Arginase-1 either alone or in combination of immune checkpoint inhibitor was determined by RT-PCR. […]

A further series deals with PDAC. The note with it: cited from earlier work.

The structures appear in SMILES notation. Entries after “also recorded” stand apart in the source; their conditions may differ. Where two headings read alike, the source gives them in different places.

As to `CC/C=C\C/C=C\C/C=C\C/C=C\C/C=C\C/C=C\CCC(=O)O[C@@H](C(=O)O[C@H]1C[C@@]2(O)[C@@H](OC(=O)c3ccccc3)[C@@H]3[C@]4(OC(C)=O)CO[C@@H]4C[C@H](O)[C@@]3(C)C(=O)[C@H](OC(=O)C3CC3)C(=C1C)C2(C)C)[C@H](C=C(C)C)NC(=O)OC(C)(C)C` [DHA-SBT-1214, Docosahexaenoic acid conjugate of SBT-1214], the toxic deaths result in series [1] (300 mg/kg total dose) is reported as “one toxic death”. Moreover, the “complete responses (CRs)” value in series [1] (PANC-1 xenograft) was “achieved CRs and essentially were cured”. Further, in series [1] (both schedules (q7d×3 and q3d×3)), the tumor growth delay is reported as more than 90 days. For the same compound, the MTD in series [1] (total dosage (80 mg/kg×3 inj)) amounted to 240 mg/kg. Besides, the cell death in the series with prostate CD133+ cells (0.1-1 μM) is listed as 80-90%. The “expression of pro-apoptotic proteins p53 and p21” value in the series on prostate CD133+ cells (previously absent expression) is reported as “significant up-regulation”. Also, in series [2], the number of spheroids entry is “greatly reduced”. In series [3], the “efficacy (tumor growth, survival)” value is “effective; also recorded: superior to ABRAXANE® and resulted in tumor clearance”. Also, the efficacy result in series [4] is listed as “remarkable efficacy”. Moreover, in series [5], the “potency higher than those of paclitaxel and docetaxel” value was “two-to-three”.
On to `Nc1ccn([C@@H]2O[C@H](CO)[C@@H](O)C2(F)F)c(=O)n1` [gemcitabine], for which the “PD-1 and CD4 mRNA level” value in series [6] was “not significantly higher”. Also, the median overall survival in the series with PDAC (MPACT Phase III clinical trial) is listed as 6.6 months; with PDAC (randomized Phase III trial, gemcitabine versus 5-FU) it was 5.65 months.

The values are drawn from patent US11497713B2, “Combination taxoid nanoemulsion with immunotherapy in cancer” (TargaGenix, Inc., priority 2017, dated 2022).
